Test results: patent US5147878A, “Aminoalkoxyphenyl derivatives, process of preparation and compositions containing the same” (Sanofi, priority 1986, dated 1992)
Structures can show the parent of a compound that is named as a salt.

Legend:
[1] = test system: epinephrine-induced increase in blood-pressure (anti-α effect); experiment: Antiadrenergic properties: anti-α effect (reduction of epinephrine-induced hypertension); assay type: in vivo; set-up: key to anti-α effect: +: for a reduction < 50%; ++: for a reduction ≥ 50%; +++: for a reduction sub-total (almost complete reduction); conditions: dog
Method: (§1) The object of this test is to determine the capacity of the compounds of the invention for reducing the increase in epinephrine-induced increase in blood-pressure (anti-α effect) and the isoprenaline-induced acceleration in heart rate (anti-β effect), in dogs previously anaesthatized with pentobarbital and atropinized. For each dog, the dose of epinephrine (between 3 and 10 μg/kg) which induced a reproducible increase in the blood-pressure of approximately 133×10^2 Pa and the dose of isoprenaline (1 to 2 μg/kg) which induced a reproducible increase in the heart rate of approximately 70 beats/min. were first determined. The dose of epinephrine and of isoprenaline, determined in this manner, were injected alternately every ten minutes and, after two successive reference responses had been obtained, an amount of the test compound was administered intravenously. The percentage reduction in the hypertension induced by the test compound compared with the reference hypertension previously obtained (approximately 100 mm Hg) was recorded. In both cases, the results of the reduction in blood-pressure or in the heart rate have been expressed as follows: […]

isolated rat aorta = experiment: Calcium inhibitory properties: contractile response to potassium-induced depolarization on isolated rat aorta; set-up: species or system isolated organ, male Wistar rats; conditions: for activity at 0.1 µM: 10^-7 M; for activity at 0.01 µM: 10^-8 M; for activity at 0.001 µM: 10^-9 M; for activity at 1 µM: 10^-6 M
Method in brief: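 Contraction is expressed as % of the pre-incubation maximum, measured after a 60 min compound exposure and a fresh K+ (100 mM KCl) depolarization. Tissue: aortic strips from male Wistar rats, 2 g tension, modified Krebs-bicarbonate, 37° C, CO2/O2 gassed.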

[2] = test system: isoprenaline-induced acceleration in heart rate (anti-β effect); experiment: Antiadrenergic properties: anti-β effect (reduction of isoprenaline-induced tachycardia); assay type: in vivo; set-up: key to anti-β effect: +: for a reduction < 50%; ++: for a reduction ≥ 50%; +++: for a reduction sub-total (almost complete reduction); conditions: dog; for inhibition in vivo at 10 mg/kg: 10 mg/kg i.v., known compounds
Method: as §1, with “the acceleration of the heart rate” for “the hypertension”, “reference tachycardia measured” for “reference hypertension”, “previously” for “previously obtained”, “(approximately 70 beats)” for “(approximately 100 mm Hg)”

[3] = Rattus norvegicus, 1 h, read-out: % of the maximum contractional effect
[4] = Canis lupus familiaris, iv, 11.2 mg/kg i.v.
[5] = Canis lupus familiaris, iv, 0.5 mg/kg i.v.
[6] = Canis lupus familiaris, iv, 0.3 mg/kg i.v.

SMILES	activity at 0.1 µM (isolated rat aorta; [3])	activity at 0.01 µM (isolated rat aorta; [3])	activity at 0.001 µM (isolated rat aorta; [3])	activity at 1 µM (isolated rat aorta; [3])	further results
COc1ccc(CNCCCOc2ccc(S(=O)(=O)c3c(C(C)C)cn4ccccc34)cc2)cc1OC [Ex. 43, 2-Isopropyl-1-{4-[3-(3,4-dimethoxybenzylamino)propyloxy]benzenesulphonyl}indolizine]	9.7%	58.4%	88.7%		anti-α effect ([1]; 0.2 mg/kg i.v.): +++; anti-β effect ([2]; 0.2 mg/kg i.v.): +++
CC(C)c1cn2ccccc2c1S(=O)(=O)c1ccc(OCCCN(C)C)cc1 [Ex. 14, 2-Isopropyl-1-{4-[3-(dimethylamino)propyloxy]benzenesulphonyl}indolizine]				32.6%	anti-α effect ([1]; 2.5 mg/kg i.v.): +++; anti-β effect ([2]; 2.5 mg/kg i.v.): +++
COc1ccc(CCN(C)CCCOc2ccc(Sc3c(C(C)C)cn4ccccc34)cc2)cc1OC [Ex. 53, 1-[4-{3-[N-methyl-N-(3,4-dimethoxy-β-phenethyl)amino]propyloxy}phenylthio]-2-isopropylindolizine oxalate]				75.4%	anti-α effect ([1]; 6.1 mg/kg i.v.): +++; activity at 10 µM (isolated rat aorta; Rattus norvegicus, 1 h, 10^-5 M, read-out: % of the maximum contractional effect): 59.8%; inhibition in vivo at 6.1 mg/kg ([2]; Canis lupus familiaris, iv, 6.1 mg/kg i.v.): < 50%
CCCc1sc2ccccc2c1S(=O)(=O)c1ccc(OCCCN(C)CCc2ccc(OC)c(OC)c2)cc1 [Ex. 68, 2-n-Propyl-3-[4-{3-[N-methyl-N-(3,4-dimethoxy-β-phenethyl)amino]propyloxy}benzenesulphonyl]benzothiophene hemioxalate]	45.3%	68.9%		9.7%	anti-α effect ([1]; 0.6 mg/kg i.v.): +++; inhibition in vivo at 0.6 mg/kg ([2]; Canis lupus familiaris, iv, 0.6 mg/kg i.v.): ≥ 50%
COc1ccc(CCN(C)CCCOc2ccc(S(=O)(=O)c3ccccn3)cc2)cc1OC [Ex. 59, 2-[4-{3-[N-methyl-N-(3,4-dimethoxy-β-phenethyl)amino]propyloxy}benzenesulphonyl]pyridine oxalate]	87.5%			81.7%	inhibition in vivo at 11.2 mg/kg [1, 4]: ≥ 50%; % of the maximum contractional effect (isolated rat aorta; head printed "10^-" (exponent missing; first of three columns before 10^-6 M), 60 min): 33.3%; inhibition in vivo at 11.2 mg/kg [2, 4]: ≥ 50%
CCN(CC)CCCOc1ccc(S(=O)(=O)c2c(C(C)C)cn3ccccc23)cc1 [Ex. 15, 2-Isopropyl-1-{4-[3-(diethylamino)propyloxy]benzenesulphonyl}indolizine]	71.2%			18.4%	anti-α effect ([1]; 2.5 mg/kg i.v.): +++; anti-β effect ([2]; 2.5 mg/kg i.v.): +++
CCCCN(CCCC)CCCOc1ccc(S(=O)(=O)c2c(CC)cn3ccccc23)cc1 [Ex. 8, 2-Ethyl-1-{4-[3-(di-n-butylamino)propyloxy]benzenesulphonyl}indolizine hydrochloride]	30.9%				inhibition in vivo at 0.5 mg/kg [1, 5]: ≥ 50%; inhibition in vivo at 0.5 mg/kg [2, 5]: < 50%
CCc1oc2ccccc2c1S(=O)(=O)c1ccc(OCCN(CC)CC)cc1 [Compound B, reference compound]	84.9%			52.2%	anti-α effect ([1]; 10 mg/kg i.v., known compounds): +++; inhibition in vivo at 10 mg/kg ([2]; Canis lupus familiaris, iv): < 50%
COc1ccc(CCN(C)CCCOc2ccc(S(=O)(=O)c3c(C(C)C)cn4ccccc34)cc2)cc1 [Ex. 47, 2-Isopropyl-1-[4-{3-[N-methyl-N-(4-methoxy-β-phenethyl)amino]propyloxy}benzenesulphonyl]indolizine acid oxalate]	17.9%	69.6%	86.5%		inhibition in vivo at 0.3 mg/kg [1, 6]: ≥ 50%; inhibition in vivo at 0.3 mg/kg [2, 6]: < 50%
COc1ccc(CCN(C)CCCOc2ccc(S(=O)(=O)c3ccccc3)cc2)cc1OC [Ex. 63, 4-{3-[N-methyl-N-(3,4-dimethoxy-β-phenethyl)amino]propyloxy}benzenesulphonylbenzene hydrochloride]	73.7%			21.4%	anti-α effect ([1]; 10.1 mg/kg i.v.): +++; inhibition in vivo at 10.1 mg/kg ([2]; Canis lupus familiaris, iv, 10.1 mg/kg i.v.): ≥ 50%
CCCN(CCC)CCCOc1ccc(S(=O)(=O)c2c(C(C)C)cn3ccccc23)cc1 [Ex. 17, 2-Isopropyl-1-{4-[3-(di-n-propylamino)propyloxy]benzenesulphonyl}indolizineoxalate]	50.4%			7.4%	anti-α effect ([1]; 1.3 mg/kg i.v.): +++; inhibition in vivo at 1.3 mg/kg ([2]; Canis lupus familiaris, iv, 1.3 mg/kg i.v.): ≥ 50%
COc1ccc(CCN(C)CCCOc2ccc(S(=O)(=O)c3c(C(C)C)nn4ccccc34)cc2)cc1OC [Ex. 71, 2-isopropyl-3-[4-{3-[N-methyl-N-(3,4-dimethoxy-β-phenethyl)amino]propyloxy}benzenesulphonyl]pyrazolo(1,5-a]pyridine oxalate]	15.1%	67.1%	84.9%	0%	anti-α effect ([1]; 0.13 mg/kg i.v.): +++; inhibition in vivo at 0.13 mg/kg ([2]; Canis lupus familiaris, iv, 0.13 mg/kg i.v.): ≥ 50%
CCc1cn2ccccc2c1S(=O)(=O)c1ccc(OCCCNCCc2ccc(OC)c(OC)c2)cc1 [Ex. 27, 2-Ethyl-1-{4-}3-(3,4-dimethoxy-β-phenethylamino)propyloxy]benzenesulphonyl}indolizine oxalate]	7.7%	58.9%	81.6%		anti-α effect ([1]; 1 mg/kg i.v.): +++; inhibition in vivo at 1 mg/kg ([2]; Canis lupus familiaris, iv, 1 mg/kg i.v.): ≥ 50%
CCCCc1oc2ccccc2c1S(=O)(=O)c1ccc(OCCCN(C)CCc2ccc(OC)c(OC)c2)cc1 [Ex. 69, 2-n-butyl-3-[4-{3-[N-methyl-N-(3,4-dimethoxy-β-phenethyl)amino]propyloxy}benzenesulphonyl]benzofuran hydrochloride]	59%	76%		36.8%	anti-α effect ([1]; 1.2 mg/kg i.v.): +++; anti-β effect ([2]; 1.2 mg/kg i.v.): + +
CCCCc1oc2ccccc2c1S(=O)(=O)c1ccc(OCCN(CC)CC)cc1 [Compound A, reference compound]	60.3%	84.3%		25%	inhibition in vivo at 10 mg/kg ([1]; Canis lupus familiaris, iv, 10 mg/kg i.v., known compounds): < 50%; inhibition in vivo at 10 mg/kg ([2]; Canis lupus familiaris, iv): 0%
COc1ccc(CCN(C)CCCOc2ccc(S(=O)(=O)c3ccoc3C(C)C)cc2)cc1OC [Ex. 77, 2-isopropyl-3-[4-{3-[N-methyl-N-(3,4-dimethoxy-β-phenethyl)amino]propyloxy}benzenesulphonyl]furan oxalate]	43.2%	86%	89.8%		anti-α effect ([1]; 3 mg/kg i.v.): +++; inhibition in vivo at 3 mg/kg ([2]; Canis lupus familiaris, iv, 3 mg/kg i.v.): ≥ 50%
CCCCN(CCCC)CCCOc1ccc(S(=O)(=O)c2cc3ccccc3nc2C(C)C)cc1.O=C(O)C(=O)O [Ex. 74, 2-isopropyl-3-{4-[3-(di-n-butylamino)propyloxy]benzenesulphonyl}quinoline oxalate]	67.3%			22.4%	anti-α effect ([1]; 1.2 mg/kg i.v.): +++; inhibition in vivo at 1.2 mg/kg ([2]; Canis lupus familiaris, iv, 1.2 mg/kg i.v.): < 50%
CCc1cn2ccccc2c1S(=O)(=O)c1ccc(OCCCN2CCCCC2)cc1.Cl [Ex. 2, 2-ethyl-1-[4-(3-piperidinopropyloxy)benzenesulphonyl]indolizine hydrochloride]	79.8%			22.6%	anti-α effect ([1]; 5 mg/kg i.v.): +++; inhibition in vivo at 5 mg/kg ([2]; Canis lupus familiaris, iv, 5 mg/kg i.v.): ≥ 50%
COc1ccc(CCN(C)CCCCOc2ccc(S(=O)(=O)c3c(C(C)C)cn4ccccc34)cc2)cc1OC [Ex. 42, 2-Isopropyl-1-[4-{4-[N-methyl-N-(3,4-dimethoxy-β-phenethyl)amino]butyloxy]benzenesulphonyl]indolizine]	21.1%	53.9%	78.8%		anti-α effect ([1]; 0.1 mg/kg i.v.): +++; anti-β effect ([2]; 0.1 mg/kg i.v.): +++
